In ChEMBL document CHEMBL1201862, “PubChem BioAssay data set” (2004):
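1) Cells in 96-well plates. 2) Compound, 48 h, 5 concentrations. 3) Linear interpolation between surrounding doses. 4) Unreached endpoint = highest concentration. The concentration for 50% growth inhibition is given as GI50.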 Calls of active or inactive are those of the source. No stated cut-off is given here; in the data, active = GI50 up to about 1.1 µM and inactive = higher.

Tests used:
Experiment in all cases: DTP human tumour cell line panel, 48 h
A549 = test system: A549
HCT-116 = test system: HCT-116
HCT-15 = test system: HCT-15
HOP-62 = test system: HOP-62
IGROV-1 = test system: IGROV-1
MDA-MB-435 = test system: MDA-MB-435
MDA-N = test system: MDA-N
MOLT-4 = test system: MOLT-4
NCI-H23 = test system: NCI-H23
NCI-H522 = test system: NCI-H522
NCI/ADR-RES = test system: NCI/ADR-RES
OVCAR-3 = test system: OVCAR-3
OVCAR-8 = test system: OVCAR-8
RXF 393 = test system: RXF 393
SF-539 = test system: SF-539
SK-MEL-28 = test system: SK-MEL-28
SNB-19 = test system: SNB-19
TK-10 = test system: TK-10
UO-31 = test system: UO-31

Row | Structure (SMILES) | GI50 (A549) | GI50 (HCT-116) | GI50 (HCT-15) | GI50 (HOP-62) | GI50 (IGROV-1) | GI50 (MDA-MB-435) | GI50 (MDA-N) | GI50 (MOLT-4) | GI50 (NCI-H23) | GI50 (NCI-H522) | GI50 (NCI/ADR-RES) | GI50 (OVCAR-3) | GI50 (OVCAR-8) | GI50 (RXF 393) | GI50 (SF-539) | GI50 (SK-MEL-28) | GI50 (SNB-19) | GI50 (TK-10) | GI50 (UO-31)
1 | CCC(=O)c1cc(C(=O)C(=S)SC)cc(C(=O)C(=S)SC)c1 | > 100 µM (inactive) | > 100 µM (inactive) | > 60 µM | > 100 µM (inactive) | > 100 µM (inactive) | > 100 µM (inactive) | > 100 µM (inactive) | 12 µM (inactive) | > 76.7 µM (inactive) | > 55.3 µM (inactive) | > 100 µM (inactive) | > 54.2 µM (inactive) | > 100 µM (inactive) | > 100 µM (inactive) | > 100 µM (inactive) | > 100 µM (inactive) | > 100 µM (inactive) | > 100 µM (inactive) | 48.4 µM (inactive)
2 | COc1ccc(C2C3=C(COC3=O)OC(C)(C)Oc3cc4c(cc32)OCO4)cc1OC (stereo not given) | 36.8 µM (inactive) | 34.6 µM (inactive) | 38.5 µM | 63.5 µM (inactive) | 36.9 µM (inactive) | 17.3 µM (inactive) | 19.8 µM (inactive) | 34.8 µM (inactive) | 36.8 µM (inactive) | 32.4 µM (inactive) | 19.9 µM (inactive) | 33.2 µM (inactive) | 46.1 µM (inactive) | 31.5 µM (inactive) | 29.1 µM (inactive) | 53.2 µM (inactive) | 44.4 µM (inactive) | 50.1 µM (inactive) | 47.9 µM (inactive)
3 | O=C1OCC(CN2CCC(n3c(=O)[nH]c4ccccc43)CC2)=C1c1ccccc1 | 30.1 µM (inactive) | 25.5 µM (inactive) | 23 µM | 28.5 µM (inactive) | 22.2 µM (inactive) | 25.3 µM (inactive) | 26.2 µM (inactive) | 22 µM (inactive) | 21.2 µM (inactive) | 19.2 µM (inactive) | 22.5 µM (inactive) | 24.7 µM (inactive) | 17.1 µM (inactive) | 34.8 µM (inactive) | 18.9 µM (inactive) | 23.4 µM (inactive) | 26.1 µM (inactive) | 28.1 µM (inactive) | 11.5 µM (inactive)
4 | O=c1c(F)cn2c(=O)n1CCCCCCCn1c(=O)c(F)cn(c1=O)CCCCCCC2 | > 100 µM (inactive) | 73.5 µM (inactive) | > 100 µM | 46.6 µM (inactive) | > 100 µM (inactive) | 64.9 µM (inactive) | > 100 µM (inactive) | > 100 µM (inactive) | > 100 µM (inactive) | > 100 µM (inactive) | 69 µM (inactive) | 61.7 µM (inactive) | 59.4 µM (inactive) | 39.1 µM (inactive) | 33.1 µM (inactive) | 3.13 µM (inactive) | > 100 µM (inactive) | 90.2 µM (inactive) | > 100 µM (inactive)
5 | C=C1C(=O)OC2CC(C)C3CC(O)OC(OCC)C3(C)CC12 (stereo not given) | 41.6 µM (inactive) | 11.9 µM (inactive) | 8.38 µM | 20.9 µM (inactive) | 19.3 µM (inactive) | 18 µM (inactive) | 17.5 µM (inactive) | 16.7 µM (inactive) | 17.1 µM (inactive) | 7.03 µM (inactive) | 16.7 µM (inactive) | 15.3 µM (inactive) | 15.7 µM (inactive) | 14.8 µM (inactive) | 18.1 µM (inactive) | 13 µM (inactive) | 26 µM (inactive) | 22 µM (inactive) | 22.3 µM (inactive)
6 | CCOc1cc(C2CC(c3ccc(NS(=O)(=O)c4cc([N+](=O)[O-])ccc4C)cc3)=NN2C(=O)c2ccccc2)ccc1O (stereo not given) | 17.8 µM (inactive) | 15.3 µM (inactive) | 12.9 µM | 17.1 µM (inactive) | 10.6 µM (inactive) | 28.1 µM (inactive) | 21.8 µM (inactive) | 19.4 µM (inactive) | 21.5 µM (inactive) | 14.8 µM (inactive) | 23.3 µM (inactive) | 12 µM (inactive) | 15.2 µM (inactive) | 11.4 µM (inactive) | 20.9 µM (inactive) | 36.5 µM (inactive) | 29.6 µM (inactive) | 14.2 µM (inactive) | 15.2 µM (inactive)
7 | COc1cc2c(cc1O)C(c1cc(O)c(O)c(OC)c1)C(O)(C(=O)O)C(CO)C2O (stereo not given) | > 100 µM (inactive) | 18.3 µM (inactive) | > 100 µM | > 100 µM (inactive) | > 100 µM (inactive) | 17.6 µM (inactive) | 16.6 µM (inactive) | 20.3 µM (inactive) | > 100 µM (inactive) | > 100 µM (inactive) | > 100 µM (inactive) | > 100 µM (inactive) | > 100 µM (inactive) | > 100 µM (inactive) | > 100 µM (inactive) | > 100 µM (inactive) | > 100 µM (inactive) | > 100 µM (inactive) | > 100 µM (inactive)
8 | Sc1nn2c(COc3cccc(OCc4nnc5sc(S)nn45)c3)nnc2s1 | > 100 µM (inactive) | > 100 µM (inactive) | 52.8 µM | > 100 µM (inactive) | > 100 µM (inactive) | > 100 µM (inactive) | > 100 µM (inactive) | 2.09 µM (inactive) | > 100 µM (inactive) | 64.6 µM (inactive) | > 100 µM (inactive) | > 100 µM (inactive) | > 100 µM (inactive) | > 100 µM (inactive) | 52.1 µM (inactive) | > 100 µM (inactive) | > 100 µM (inactive) | > 100 µM (inactive) | > 100 µM (inactive)
9 | CC1C(=NO)C(C)C(c2ccccc2)N(N=O)C1c1ccccc1 (stereo not given) | 17.8 µM (inactive) | 17.5 µM (inactive) | 16.6 µM | 19.1 µM (inactive) | 19.6 µM (inactive) | 21.3 µM (inactive) | 20.1 µM (inactive) | 12.2 µM (inactive) | 24.8 µM (inactive) | 14.7 µM (inactive) | 17.5 µM (inactive) | 25.2 µM (inactive) | 18 µM (inactive) | 17.1 µM (inactive) | 13.1 µM (inactive) | 16.7 µM (inactive) | 18.3 µM (inactive) | 24.1 µM (inactive) | 13.3 µM (inactive)
10 | c1ccc([I+]c2ccccc2)cc1 | > 100 µM (inactive) | > 100 µM (inactive) | > 100 µM | > 100 µM (inactive) | > 100 µM (inactive) | > 100 µM (inactive) | > 100 µM (inactive) | > 100 µM (inactive) | > 100 µM (inactive) | > 100 µM (inactive) | > 100 µM (inactive) | > 100 µM (inactive) | > 100 µM (inactive) | > 100 µM (inactive) | > 100 µM (inactive) | > 100 µM (inactive) | > 100 µM (inactive) | > 100 µM (inactive) | > 100 µM (inactive)
11 | O=[N+]([O-])c1ccc2c(c1)C1=NN(c3ccccc3)C(c3ccccc3Br)C1CCC2 (stereo not given) | 28.1 µM (inactive) | 12.4 µM (inactive) | 13.3 µM | 43.6 µM (inactive) | 27.5 µM (inactive) | 15 µM (inactive) | 17.3 µM (inactive) | 6.97 µM (inactive) | 18.7 µM (inactive) | 13.3 µM (inactive) | 12.7 µM (inactive) | 16.2 µM (inactive) | 22.2 µM (inactive) | 14.4 µM (inactive) | 19.1 µM (inactive) | 21.1 µM (inactive) | 25.7 µM (inactive) | 38.2 µM (inactive) | 20.6 µM (inactive)
12 | c1ccc2c(c1)nnn2C1CCCCO1 (stereo not given) | > 100 µM (inactive) | > 100 µM (inactive) | > 100 µM | > 100 µM (inactive) | > 100 µM (inactive) | > 100 µM (inactive) | > 100 µM (inactive) | > 100 µM (inactive) | > 100 µM (inactive) | > 100 µM (inactive) | > 100 µM (inactive) | > 100 µM (inactive) | > 100 µM (inactive) | > 100 µM (inactive) | > 100 µM (inactive) | > 100 µM (inactive) | > 100 µM (inactive) | > 100 µM (inactive) | > 100 µM (inactive)
13 | COc1ccc(C(NCCNC(c2ccc(OC)c(OC)c2)c2cc3c(cc2O)OCO3)c2cc3c(cc2O)OCO3)cc1OC (stereo not given) | 12.2 µM (inactive) | 2.26 µM (inactive) | 1.85 µM | 8.18 µM (inactive) | 2.72 µM (inactive) | 1.87 µM (inactive) | 1.64 µM (inactive) | 0.918 µM (active) | 2.51 µM (inactive) | 1.74 µM (inactive) | 2.13 µM (inactive) | 2.65 µM (inactive) | 1.89 µM (inactive) | 1.72 µM (inactive) | 2.27 µM (inactive) | 1.62 µM (inactive) | 4.06 µM (inactive) | 4.04 µM (inactive) | 2.8 µM (inactive)
14 | O=C([C@H](O)[C@@H](O)c1ccc(Br)cc1)C12CC3CC(CC(C3)C1)C2 | 9.38 µM (inactive) | 10.4 µM (inactive) | 13.6 µM | 7.6 µM (inactive) | 4.48 µM (inactive) | 11.6 µM (inactive) | 11.1 µM (inactive) | 14.4 µM (inactive) | 8.45 µM (inactive) | 10.8 µM (inactive) | 24.9 µM (inactive) | 9.25 µM (inactive) | 42.8 µM (inactive) | 52.7 µM (inactive) | 8.91 µM (inactive) | 24.7 µM (inactive) | 19.2 µM (inactive) | 14 µM (inactive) | 23.7 µM (inactive)
15 | C[N+](C)(N)CCC[N+](C)(C)N | > 100 µM (inactive) | > 100 µM (inactive) | > 100 µM | > 100 µM (inactive) | > 100 µM (inactive) | > 100 µM (inactive) | > 100 µM (inactive) | > 100 µM (inactive) | > 100 µM (inactive) | > 100 µM (inactive) | > 100 µM (inactive) | > 100 µM (inactive) | > 100 µM (inactive) | > 100 µM (inactive) | > 100 µM (inactive) | > 100 µM (inactive) | > 100 µM (inactive) | > 100 µM (inactive) | > 100 µM (inactive)
